Measured values taken from PMC11995216, “End-to-End Backbone Cyclization Enhances Passive Permeability of bRo5 Oligomeric Depsipeptides with Nonlinear Size Dependence” (ACS Medicinal Chemistry Letters, 2025).
Several values for one entry are separate records, joined by “and”; a condition that tells them apart may be missing. Equal values may be shown once. Read-outs that look alike come from different tables or passages of the source. Non-standard residues stand in square brackets, D forms with d. Residues, ends and D or L forms follow the SMILES beside them. *: point of attachment. Ahp(2) = CCCCC[C@H](N)C(=O)O; dNMeA = CN[C@H](C)C(=O)O; Boc = CC(C)(C)OC(=O)*; OBn = c1ccc(CO*)cc1

What was measured:
[1] = initial concentration 500 uM, UV detection
in vitro = conditions: PAMPA, Papp
[2] = calculated using Supplement Equation 1, UV detection
[3] = UV detection
PAMPA [4] = conditions: UV detection
[5] = PAMPA, 500 uM
PAMPA [6] = conditions: UV detection, initial concentration 500 uM
[7] = Well 1 / [donor], Well 1, standard curve
[8] = Well 2 / [donor], Well 2, standard curve
[9] = Well 3 / [donor], Well 3, standard curve
[10] = Well 4 / [donor], Well 4, standard curve
[11] = Well 5 / [donor], Well 5, standard curve
[12] = Papp (x 10^-6 cm/s) / experiment 1
[13] = Papp (x 10^-6 cm/s) / experiment 2
[14] = Papp (x 10^-6 cm/s) / experiment 3
[15] = Papp (x 10^-6 cm/s) / experiment 4
[16] = Papp (x 10^-6 cm/s) / experiment 5
[17] = Papp (x 10^-6 cm/s) / experiment 6
[18] = Papp (x 10^-6 cm/s) / experiment 7
[19] = Papp (x 10^-6 cm/s) / experiment 8
[20] = Papp (x 10^-6 cm/s) / experiment 9
[21] = Papp (x 10^-6 cm/s) / experiment 10
[22] = Acceptor Concentration (uM) / experiment 1
[23] = Acceptor Concentration (uM) / experiment 2
[24] = Acceptor Concentration (uM) / experiment 3
[25] = Acceptor Concentration (uM) / experiment 4
[26] = Acceptor Concentration (uM) / experiment 5
[27] = Acceptor Concentration (uM) / experiment 6
[28] = Acceptor Concentration (uM) / experiment 7
[29] = Acceptor Concentration (uM) / experiment 8
[30] = Acceptor Concentration (uM) / experiment 9
[31] = Acceptor Concentration (uM) / experiment 10

In the case of `CCCCC[C@H](OC(=O)[C@@H](C)N(C)C(=O)OC(C)(C)C)C(=O)OCc1ccccc1` [Compound L1.1], the donor concentration after incubation [1, 7] is reported as 339 µM and 383 µM, the donor concentration after incubation [1, 8] is reported as 384 µM and 381 µM and the donor concentration after incubation [1, 9] is reported as 406 µM and 335 µM. The donor concentration after incubation [1, 10] was 363 µM and 315 µM, the donor concentration after incubation [1, 11] was 360 µM and 379 µM and the Papp at 500 uM (in vitro) was 4.3 ± 0.6 ×10⁻⁶ cm/s. The %T ([2]; Well 1 / %T, Well 1) was 0.56% and 0.55%, the %T ([2]; Well 2 / %T, Well 2) was 0.51% and the %T ([2]; Well 3 / %T, Well 3) was 0.44% and 0.55%. The %T ([2]; Well 4 / %T, Well 4) was 0.52% and 0.62%, the %T ([2]; Well 5 / %T, Well 5) was 0.49% and 0.52% and the % recovery ([3]; Well 1 / %R, Well 1) was 87% and 98%. For the same compound, the % recovery ([3]; Well 2 / %R, Well 2) was 96% and 95%, the % recovery ([3]; Well 3 / %R, Well 3) was 97% and 86% and the % recovery ([3]; Well 4 / %R, Well 4) was 91% and 84%. For the same compound, the % recovery ([3]; Well 5 / %R, Well 5) was 89% and 95%, the Papp (PAMPA [4]; [12]) was 4.67 ×10⁻⁶ cm/s and the Papp (PAMPA [4]; [13]) was 4.06 ×10⁻⁶ cm/s. For the same compound, the Papp (PAMPA [4]; [14]) was 3.27 ×10⁻⁶ cm/s, the Papp (PAMPA [4]; [15]) was 4.23 ×10⁻⁶ cm/s and the Papp (PAMPA [4]; [16]) was 3.87 ×10⁻⁶ cm/s. The Papp (PAMPA [4]; [17]) was 4.51 ×10⁻⁶ cm/s, the Papp (PAMPA [4]; [18]) was 4.1 ×10⁻⁶ cm/s and the Papp (PAMPA [4]; [19]) was 4.51 ×10⁻⁶ cm/s. For the same compound, the Papp (PAMPA [4]; [20]) was 5.45 ×10⁻⁶ cm/s, the Papp (PAMPA [4]; [21]) was 4.19 ×10⁻⁶ cm/s and the “Acceptor Concentration, Ave” value [5] was 95.2 µM. For the same compound, the Δ % diffusion [5] was “↑22%”, the Acceptor Concentration (PAMPA [6]; [22]) was 97.9 µM and the Acceptor Concentration (PAMPA [6]; [23]) was 95.4 µM. For the same compound, the Acceptor Concentration (PAMPA [6]; [24]) was 79.7 µM, the Acceptor Concentration (PAMPA [6]; [25]) was 94.3 µM and the Acceptor Concentration (PAMPA [6]; [26]) was 84.7 µM. It also gave an Acceptor Concentration (PAMPA [6]; [27]) of 107 µM, an Acceptor Concentration (PAMPA [6]; [28]) of 95.8 µM and an Acceptor Concentration (PAMPA [6]; [29]) of 92.9 µM. It also gave an Acceptor Concentration (PAMPA [6]; [30]) of 107 µM and an Acceptor Concentration (PAMPA [6]; [31]) of 97.4 µM.

In the case of `CCCCC[C@H](OC(=O)[C@@H](C)N(C)C(=O)[C@H](CCCCC)OC(=O)[C@@H](C)N(C)C(=O)[C@H](CCCCC)OC(=O)[C@@H](C)N(C)C(=O)OC(C)(C)C)C(=O)OCc1ccccc1` [Compound L1.3], the donor concentration after incubation [1, 7] is reported as 358 µM, the donor concentration after incubation [1, 8] is reported as 382 µM and 379 µM and the donor concentration after incubation [1, 9] is reported as 378 µM and 351 µM. For the same compound, the donor concentration after incubation [1, 10] was 350 µM and 346 µM, the donor concentration after incubation [1, 11] was 351 µM and 360 µM and the Papp at 500 uM (in vitro) was 3.54 ± 0.2 ×10⁻⁶ cm/s. The %T ([2]; Well 1 / %T, Well 1) was 0.44% and 0.49%, the %T ([2]; Well 2 / %T, Well 2) was 0.47% and 0.46% and the %T ([2]; Well 3 / %T, Well 3) was 0.46%. The %T ([2]; Well 4 / %T, Well 4) was 0.49% and 0.46%, the %T ([2]; Well 5 / %T, Well 5) was 0.47% and 0.43% and the % recovery ([3]; Well 1 / %R, Well 1) was 86% and 89%. For the same compound, the % recovery ([3]; Well 2 / %R, Well 2) was 93% and 92%, the % recovery ([3]; Well 3 / %R, Well 3) was 91% and 85% and the % recovery ([3]; Well 4 / %R, Well 4) was 86% and 84%. The % recovery ([3]; Well 5 / %R, Well 5) was 85% and 86%, the Papp (PAMPA [4]; [12]) was 3.86 ×10⁻⁶ cm/s and the Papp (PAMPA [4]; [13]) was 3.52 ×10⁻⁶ cm/s. The Papp (PAMPA [4]; [14]) was 3.52 ×10⁻⁶ cm/s, the Papp (PAMPA [4]; [15]) was 3.49 ×10⁻⁶ cm/s and the Papp (PAMPA [4]; [16]) was 3.18 ×10⁻⁶ cm/s. For the same compound, the Papp (PAMPA [4]; [17]) was 3.34 ×10⁻⁶ cm/s, the Papp (PAMPA [4]; [18]) was 3.62 ×10⁻⁶ cm/s and the Papp (PAMPA [4]; [19]) was 3.46 ×10⁻⁶ cm/s. It also gave a Papp (PAMPA [4]; [20]) of 3.83 ×10⁻⁶ cm/s, a Papp (PAMPA [4]; [21]) of 3.57 ×10⁻⁶ cm/s and a LogPapp [5] of -5.45 ± 0.02. The Δ % diffusion [5] was “↑3%”, the Acceptor Concentration (PAMPA [6]; [22]) was 84.1 µM and the Acceptor Concentration (PAMPA [6]; [23]) was 80.7 µM. For the same compound, the Acceptor Concentration (PAMPA [6]; [24]) was 74.5 µM, the Acceptor Concentration (PAMPA [6]; [25]) was 72.5 µM and the Acceptor Concentration (PAMPA [6]; [26]) was 68.1 µM. For the same compound, the Acceptor Concentration (PAMPA [6]; [27]) was 71.8 µM, the Acceptor Concentration (PAMPA [6]; [28]) was 84 µM and the Acceptor Concentration (PAMPA [6]; [29]) was 79 µM. It also gave an Acceptor Concentration (PAMPA [6]; [30]) of 81.4 µM and an Acceptor Concentration (PAMPA [6]; [31]) of 75.6 µM.

In the case of `CCCCC[C@H](NC(=O)[C@@H](C)N(C)C(=O)[C@H](CCCCC)NC(=O)[C@@H](C)N(C)C(=O)[C@H](CCCCC)NC(=O)[C@@H](C)N(C)C(=O)[C@H](CCCCC)NC(=O)[C@@H](C)N(C)C(=O)OC(C)(C)C)C(=O)OCc1ccccc1` [Compound L2.5] (Boc-[dNMeA][Ahp(2)][dNMeA][Ahp(2)][dNMeA][Ahp(2)][dNMeA][Ahp(2)]-OBn), the donor concentration after incubation ([1]; Well 1 / [donor], Well 1) is reported as 362 µM and 345 µM, the donor concentration after incubation ([1]; Well 2 / [donor], Well 2) is reported as 391 µM and 386 µM and the donor concentration after incubation ([1]; Well 3 / [donor], Well 3) is reported as 400 µM and 397 µM. For the same compound, the donor concentration after incubation ([1]; Well 4 / [donor], Well 4) was 391 µM and 376 µM, the donor concentration after incubation ([1]; Well 5 / [donor], Well 5) was 351 µM and 405 µM and the %T ([2]; Well 1 / %T, Well 1) was 0.61% and 0.63%. For the same compound, the %T ([2]; Well 2 / %T, Well 2) was 0.61% and 0.6%, the %T ([2]; Well 3 / %T, Well 3) was 0.58% and 0.63% and the %T ([2]; Well 4 / %T, Well 4) was 0.6% and 0.62%. The %T ([2]; Well 5 / %T, Well 5) was 0.61% and 0.64%, the % recovery ([3]; Well 1 / %R, Well 1) was 84% and 83% and the % recovery ([3]; Well 2 / %R, Well 2) was 89%. For the same compound, the % recovery ([3]; Well 3 / %R, Well 3) was 90% and 91%, the % recovery ([3]; Well 4 / %R, Well 4) was 90% and the % recovery ([3]; Well 5 / %R, Well 5) was 82% and 92%. For the same compound, the Papp (PAMPA [4]; Papp (x 10^-6 cm/s) / [row 1]) was 2.47 ×10⁻⁶ cm/s, the Papp (PAMPA [4]; Papp (x 10^-6 cm/s) / [row 2]) was 2.25 ×10⁻⁶ cm/s and the Papp (PAMPA [4]; Papp (x 10^-6 cm/s) / [row 3]) was 2.11 ×10⁻⁶ cm/s. For the same compound, the Papp (PAMPA [4]; Papp (x 10^-6 cm/s) / [row 4]) was 2.43 ×10⁻⁶ cm/s, the Papp (PAMPA [4]; Papp (x 10^-6 cm/s) / [row 5]) was 2.68 ×10⁻⁶ cm/s and the Papp (PAMPA [4]; Papp (x 10^-6 cm/s) / [row 6]) was 3.13 ×10⁻⁶ cm/s. For the same compound, the Papp (PAMPA [4]; Papp (x 10^-6 cm/s) / [row 7]) was 2.4 ×10⁻⁶ cm/s, the Papp (PAMPA [4]; Papp (x 10^-6 cm/s) / [row 8]) was 2.43 ×10⁻⁶ cm/s and the Papp (PAMPA [4]; Papp (x 10^-6 cm/s) / [row 9]) was 2.64 ×10⁻⁶ cm/s. The Papp (PAMPA [4]; Papp (x 10^-6 cm/s) / [row 10]) was 2.27 ×10⁻⁶ cm/s, the “Acceptor Concentration, Ave” value [5] was 58.3 µM and the Δ % diffusion [5] was “↑6%”. For the same compound, the Acceptor Concentration (PAMPA [6]; Acceptor Concentration (uM) / [row 1]) was 55.5 µM, the Acceptor Concentration (PAMPA [6]; Acceptor Concentration (uM) / [row 2]) was 54.4 µM and the Acceptor Concentration (PAMPA [6]; Acceptor Concentration (uM) / [row 3]) was 52.1 µM. It also gave an Acceptor Concentration (PAMPA [6]; Acceptor Concentration (uM) / [row 4]) of 59 µM, an Acceptor Concentration (PAMPA [6]; Acceptor Concentration (uM) / [row 5]) of 58.4 µM and an Acceptor Concentration (PAMPA [6]; Acceptor Concentration (uM) / [row 6]) of 67.8 µM. It also gave an Acceptor Concentration (PAMPA [6]; Acceptor Concentration (uM) / [row 7]) of 57.4 µM, an Acceptor Concentration (PAMPA [6]; Acceptor Concentration (uM) / [row 8]) of 59.8 µM and an Acceptor Concentration (PAMPA [6]; Acceptor Concentration (uM) / [row 9]) of 61.8 µM. It also gave an Acceptor Concentration (PAMPA [6]; Acceptor Concentration (uM) / [row 10]) of 56.8 µM.
